Laboratory results from patent US8937048B2, “Anti-angiogenic compounds” (Covx Technologies Ireland, Limited, priority 2008, dated 2015).
Where a SMILES comes first, the peptide text is derived from it. Bridges are numbered along the chain shown (N, C = ends). [ ]: non-standard residue; d: D form.

Molecular target: T1, recombinant human VEGF165 (Homo sapiens, UniProt P15692)
T1 sequence (P15692 27-191 isoform P15692-4): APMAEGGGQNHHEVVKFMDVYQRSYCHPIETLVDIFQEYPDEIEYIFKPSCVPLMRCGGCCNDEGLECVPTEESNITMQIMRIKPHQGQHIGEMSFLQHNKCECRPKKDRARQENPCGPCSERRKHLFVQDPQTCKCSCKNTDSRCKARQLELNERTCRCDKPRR
Experiment: VEGF peptide binding assay (competition ELISA, VEGF165 binding to coated VEGFR2/Fc)
Outline: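 VEGFR2/Fc was coated, and peptides (0.128–10,000 nM, N-acetyl, C-amide) were preincubated with 25 ng/ml human VEGF165 and added for 1 h at RT. Bound VEGF was detected with biotinylated anti-VEGF, streptavidin-HRP and TMB at OD450. IC50 came from sigmoid dose-response fits of OD450 versus concentration.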

SMILES | IC50 [nM]
CC[C@H](C)[C@@H]1NC(=O)[C@H](CC(=O)O)NC(=O)[C@@H](NC(=O)[C@H](CC(N)=O)NC(=O)[C@@H]2CCCN2C(=O)[C@H](CCC(=O)O)NC(=O)[C@@H](NC(C)=O)C(C)C)CSSC[C@@H](C(=O)N[C@@H](Cc2ccccc2)C(=O)N[C@@H](CCC(=O)O)C(=O)N[C@@H](CCCNC(=N)N)C(=O)N[C@@H](CC(C)C)C(=O)N[C@@H](CCSC)C(=O)NCC(=O)N[C@@H](CC(C)C)C(=O)N[C@H](C(N)=O)[C@@H](C)O)NC(=O)[C@H](CCC(=O)O)NC(=O)[C@H](Cc2c[nH]c3ccccc23)NC(=O)[C@H](C(C)C)NC(=O)[C@H](Cc2c[nH]c3ccccc23)NC(=O)[C@H](CCSC)NC(=O)[C@H](C(C)C)NC(=O)[C@H](Cc2c[nH]cn2)NC1=O [Compound 59, VEPNCDIHVMWVWECFERLMGLT] (Ac-VEPNCDIHVMWVWECFERLMGLT-NH2; disulfide 5-15 (inferred)) | 25
CC[C@H](C)[C@@H]1NC(=O)[C@H](CC(=O)O)NC(=O)[C@@H](NC(=O)[C@H](CC(N)=O)NC(=O)[C@@H]2CCCN2C(=O)[C@H](CCC(=O)O)NC(=O)[C@@H](NC(C)=O)C(C)C)CSSC[C@@H](C(=O)N[C@@H](Cc2ccccc2)C(=O)N[C@@H](CCC(=O)O)C(=O)N[C@@H](CCCNC(=N)N)C(=O)N[C@@H](CC(C)C)C(=O)N[C@H](CC(C)C)C(=O)N[C@@H](CCCCNC(C)=O)C(N)=O)NC(=O)[C@H](CCC(=O)O)NC(=O)[C@H](Cc2c[nH]c3ccccc23)NC(=O)[C@H](C(C)C)NC(=O)[C@H](Cc2c[nH]c3ccccc23)NC(=O)[C@H](CCSC)NC(=O)[C@H](C(C)C)NC(=O)[C@H](Cc2c[nH]cn2)NC1=O [Compound 60, V-E-P-N-C-D-I-H-V-M-W-V-W-E-C-F-E-R-L-(D-Leu)-(Kac)] (Ac-VEPNCDIHVMWVWECFERL[dL]K(Ac)-NH2; disulfide 5-15 (inferred)) | 25
CC[C@H](C)[C@@H]1NC(=O)[C@H](CC(=O)O)NC(=O)[C@@H](NC(=O)[C@H](CC(N)=O)NC(=O)[C@@H]2CCCN2C(=O)[C@H](CCC(=O)O)NC(=O)[C@@H](NC(C)=O)C(C)C)CSSC[C@@H](C(=O)N[C@@H](Cc2ccccc2)C(=O)N[C@@H](CCC(=O)O)C(=O)N[C@@H](CCCNC(=N)N)C(=O)N[C@@H](CC(C)C)C(=O)N[C@@H](Cc2ccc(O)cc2)C(=O)NCC(=O)NCC(=O)NCC(N)=O)NC(=O)[C@H](CCC(=O)O)NC(=O)[C@H](Cc2c[nH]c3ccccc23)NC(=O)[C@H](C(C)C)NC(=O)[C@H](Cc2c[nH]c3ccccc23)NC(=O)[C@H](CCSC)NC(=O)[C@H](C(C)C)NC(=O)[C@H](Cc2c[nH]cn2)NC1=O [Compound 61, VEPNCDIHVMWVWECFERLYGGG] (Ac-VEPNCDIHVMWVWECFERLYGGG-NH2; disulfide 5-15 (inferred)) | 23.6
CC[C@H](C)[C@@H]1NC(=O)[C@H](CC(=O)O)NC(=O)[C@@H](NC(=O)[C@H](CC(N)=O)NC(=O)[C@@H]2CCCN2C(=O)[C@H](CCC(=O)O)NC(=O)[C@@H](NC(C)=O)C(C)C)CSSC[C@@H](C(=O)N[C@@H](Cc2ccccc2)C(=O)N[C@@H](CCC(=O)O)C(=O)N[C@@H](CCCNC(=N)N)C(=O)N[C@@H](CC(C)C)C(=O)N[C@@H](CCSC)C(=O)N[C@@H](CCCCN)C(N)=O)NC(=O)[C@H](CCC(=O)O)NC(=O)[C@H](Cc2c[nH]c3ccccc23)NC(=O)[C@H](C(C)C)NC(=O)[C@H](Cc2c[nH]c3ccccc23)NC(=O)[C@H](CCSC)NC(=O)[C@H](C(C)C)NC(=O)[C@H](Cc2c[nH]cn2)NC1=O [Compound 62, VEPNCDIHVMWVWECFERLMK] (Ac-VEPNCDIHVMWVWECFERLMK-NH2; disulfide 5-15 (inferred)) | 25
CC[C@H](C)[C@@H]1NC(=O)[C@H](CC(=O)O)NC(=O)[C@@H](NC(=O)[C@H](CC(N)=O)NC(=O)[C@@H]2CCCN2C(=O)[C@H](CCC(=O)O)NC(=O)[C@@H](NC(C)=O)C(C)C)CSSC[C@@H](C(=O)N[C@@H](Cc2ccccc2)C(=O)N[C@@H](CCC(=O)O)C(=O)N[C@@H](CCCNC(=N)N)C(=O)N[C@@H](CC(C)C)C(=O)N[C@@H](CCSC)C(=O)N[C@@H](CCCNC(=N)N)C(=O)N[C@@H](CCC(=O)O)C(=O)N[C@@H](CC(C)C)C(N)=O)NC(=O)[C@H](CCC(=O)O)NC(=O)[C@H](Cc2c[nH]c3ccccc23)NC(=O)[C@H](C(C)C)NC(=O)[C@H](Cc2c[nH]c3ccccc23)NC(=O)[C@H](CCSC)NC(=O)[C@H](C(C)C)NC(=O)[C@H](Cc2c[nH]cn2)NC1=O [Compound 63, VEPNCDIHVMWVWECFERLMREL] (Ac-VEPNCDIHVMWVWECFERLMREL-NH2; disulfide 5-15 (inferred)) | 24
CC[C@H](C)[C@@H]1NC(=O)[C@H](CC(=O)O)NC(=O)[C@@H](NC(=O)[C@H](CC(N)=O)NC(=O)[C@@H]2CCCN2C(=O)[C@H](CCC(=O)O)NC(=O)[C@@H](NC(C)=O)C(C)C)CSSC[C@@H](C(=O)N[C@@H](Cc2ccccc2)C(=O)N[C@@H](CCC(=O)O)C(=O)N[C@@H](CCCNC(=N)N)C(=O)N[C@@H](CC(C)C)C(N)=O)NC(=O)[C@H](CCC(=O)O)NC(=O)[C@H](Cc2c[nH]c3ccccc23)NC(=O)[C@H](C(C)C)NC(=O)[C@H](Cc2c[nH]c3ccccc23)NC(=O)[C@H](CCSC)NC(=O)[C@H](C(C)C)NC(=O)[C@H](Cc2c[nH]cn2)NC1=O [Compound 64, V-E-P-N-C-D-I-H-V-M-W-V-W-E-C-F-E-R-L-] (Ac-VEPNCDIHVMWVWECFERL-NH2; disulfide 5-15 (inferred)) | 24
CC[C@H](C)[C@@H]1NC(=O)[C@H](CC(=O)O)NC(=O)[C@@H](NC(=O)[C@H](CC(N)=O)NC(=O)[C@@H]2CCCN2C(=O)[C@H](CCC(=O)O)NC(=O)[C@@H](NC(C)=O)C(C)C)CSSC[C@@H](C(=O)N[C@@H](Cc2ccccc2)C(=O)N[C@@H](CCC(=O)O)C(=O)N[C@@H](CCCNC(=N)N)C(=O)N[C@@H](CC(C)C)C(=O)N[C@@H](CCSC)C(=O)N[C@@H](CCCCN)C(=O)N[C@@H](CCC(=O)O)C(=O)N[C@@H](CC(C)C)C(N)=O)NC(=O)[C@H](CCC(=O)O)NC(=O)[C@H](Cc2c[nH]c3ccccc23)NC(=O)[C@H](C(C)C)NC(=O)[C@H](Cc2c[nH]c3ccccc23)NC(=O)[C@H](CCSC)NC(=O)[C@H](C(C)C)NC(=O)[C@H](Cc2c[nH]cn2)NC1=O [Compound 65, VEPNCDIHVMWVWECFERLMKEL] (Ac-VEPNCDIHVMWVWECFERLMKEL-NH2; disulfide 5-15 (inferred)) | 18
CC[C@H](C)[C@@H]1NC(=O)[C@H](CC(=O)O)NC(=O)[C@@H](NC(=O)[C@H](CC(N)=O)NC(=O)[C@@H]2CCCN2C(=O)[C@H](CCC(=O)O)NC(=O)[C@@H](NC(C)=O)C(C)C)CSSC[C@@H](C(=O)N[C@@H](Cc2ccccc2)C(=O)N[C@@H](CCC(=O)O)C(=O)N[C@@H](CCCNC(=N)N)C(=O)N[C@@H](CC(C)C)C(=O)N[C@@H](Cc2ccc(O)cc2)C(=O)NCC(=O)N2CCC[C@H]2C(=O)N[C@@H](Cc2c[nH]c3ccccc23)C(N)=O)NC(=O)[C@H](CCC(=O)O)NC(=O)[C@H](Cc2c[nH]c3ccccc23)NC(=O)[C@H](C(C)C)NC(=O)[C@H](Cc2c[nH]c3ccccc23)NC(=O)[C@H](CCSC)NC(=O)[C@H](C(C)C)NC(=O)[C@H](Cc2c[nH]cn2)NC1=O [Compound 66, VEPNCDIHVMWVWECFERLYGPW] (Ac-VEPNCDIHVMWVWECFERLYGPW-NH2; disulfide 5-15 (inferred)) | 18.7
CC[C@H](C)[C@@H]1NC(=O)[C@H](CC(=O)O)NC(=O)[C@@H](NC(=O)[C@H](CC(N)=O)NC(=O)[C@@H]2CCCN2C(=O)[C@H](CCC(=O)O)NC(=O)[C@@H](NC(C)=O)C(C)C)CSSC[C@@H](C(=O)N[C@@H](Cc2ccccc2)C(=O)N[C@@H](CCC(=O)O)C(=O)N[C@@H](CCCNC(=N)N)C(=O)N[C@@H](CC(C)C)C(=O)N[C@@H](CC(C)C)C(=O)N[C@@H](CCCCN)C(N)=O)NC(=O)[C@H](CCC(=O)O)NC(=O)[C@H](Cc2c[nH]c3ccccc23)NC(=O)[C@H](C(C)C)NC(=O)[C@H](Cc2c[nH]c3ccccc23)NC(=O)[C@H](CCSC)NC(=O)[C@H](C(C)C)NC(=O)[C@H](Cc2c[nH]cn2)NC1=O [Compound 67, VEPNCDIHVMWVWECFERLLK] (Ac-VEPNCDIHVMWVWECFERLLK-NH2; disulfide 5-15 (inferred)) | 10.1
CC[C@H](C)[C@@H]1NC(=O)[C@H](CC(=O)O)NC(=O)[C@@H](NC(=O)[C@H](CC(N)=O)NC(=O)[C@@H]2CCCN2C(=O)[C@H](CCC(=O)O)NC(=O)[C@@H](NC(C)=O)C(C)C)CSSC[C@@H](C(=O)N[C@@H](Cc2ccccc2)C(=O)N[C@@H](CCC(=O)O)C(=O)N[C@@H](CCCNC(=N)N)C(=O)N[C@@H](CC(C)C)C(=O)N[C@@H](CC(C)C)C(=O)N[C@@H](CCCCNC(C)=O)C(N)=O)NC(=O)[C@H](CCC(=O)O)NC(=O)[C@H](Cc2c[nH]c3ccccc23)NC(=O)[C@H](C(C)C)NC(=O)[C@H](Cc2c[nH]c3ccccc23)NC(=O)[C@H](CCSC)NC(=O)[C@H](C(C)C)NC(=O)[C@H](Cc2c[nH]cn2)NC1=O [Compound 68, VEPNCDIHVMWVWECFERLL-(Kac)] (Ac-VEPNCDIHVMWVWECFERLLK(Ac)-NH2; disulfide 5-15 (inferred)) | 10
